The values that follow come from patent publication US8129366B2, “VLA-4 inhibitory drug” (Daiichi Sankyo Company, Limited, priority 2005, dated 2012).

Data set [1] has as its system eosinophile infiltration in mice actively sensitized with ascaris. Kind of data set: Test for eosinophile infiltration in mice actively sensitized with ascaris, administered two times a day. Format: in vivo. The conditions noted are these: orally 5 mg/kg two times a day; for inhibition in vivo at 5 mg/kg: Mus musculus, po, eosinophile count in BALF 48 hours after sensitization vs ascaris-sensitized group, read-out: suppression rate (%); for Average total eosinophile count (×10^5) of (ascaris-sensitized + substance under test) group: BALF 48 hours after sensitization. The protocol:
Test for eosinophile infiltration in mice actively sensitized with ascaris (antigen to pig roundworm):
It has been reported that infiltration of eosinophilic cells is induced by active sensitization with ascaris {Int. Arch. Immuno., 108, 11-18 (1995)}. An evaluation of the compounds under test was performed according to the evaluation method described herein. The substance under test was orally administered in an amount of 5 mg/kg, two times a day. The total cell count and the eosinophile count in BALF of 48 hours after sensitization were calculated, and the effects were determined by comparing with the group not administered with the substance under test.

Data set [2] can be described thus: Solubility test in first and second liquid of the Japanese Pharmacopoeia.
Experimental: The solubilities of the substance under test in the first liquid (JP1, pH=1.2) of the Japanese Pharmacopoeia and the second liquid (JP2, pH=6.8) of the Japanese Pharmacopoeia, were evaluated.
Data set [3] has as its target T1, hα4 and β1 integrins (Homo sapiens, UniProt P05556+P13612).
T1 construct: expressed in transfected cells; host or cells: CHO cells
Kind of data set: In vitro inhibition of binding between CHO cells expressing hα4 and β1 integrins and Eu3+-hVCAM-1 D1D7-IgG. To be noted: for Ki: CHO cells expressing hα4 and β1 integrins, Eu3+-hVCAM-1 D1D7-IgG ligand, without HSA; for IC50: in the presence of 3% human serum albumin (HSA final concentration 3%). The method in brief:
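Bound europium-labelled VCAM-1 D1D7-IgG on α4β1-expressing CHO cells was measured by time-resolved fluorescence after washing at 4 °C. Ligand (2 nM working dilution) and test compound, with or without 3% final HSA, were co-incubated for 1 h at room temperature in Mn²⁺-containing HEPES buffer, pH 7.5. IC50 came from % binding inhibition; Ki was calculated from ligand concentration and Scatchard Kd.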

Data set [4] in a line: Test for pharmacokinetics and oral absorbability in monkeys. To be noted: orally 0.5 mg/kg, single agent; for AUC (ng · h/ml): total area under the plasma concentration versus time curve: LC/MS/MS. Format: in vivo. On the procedure: The pharmacokinetic parameters in the case of orally administering (0.5 mg/kg, single agent) the substance under test to monkeys, were as follows.

Where [5] appears, read: first liquid of the Japanese Pharmacopoeia (JP1), pH 1.2, simulated gastric fluid, First liquid of Japanese Pharmacopoeia (μg/mL), JP1, pH=1.2.
Setting [6] is: second liquid of the Japanese Pharmacopoeia (JP2), pH 6.8, aqueous buffer, Second liquid of Japanese Pharmacopoeia (μg/mL), JP2, pH=6.8.

≈ marks a conversion by molar mass, not a printed value. Like-named read-outs stand apart in the source and are kept apart here. A value given as a limit tells only on which side of the number the result lay.

T1 sequence (P13612 34-1032): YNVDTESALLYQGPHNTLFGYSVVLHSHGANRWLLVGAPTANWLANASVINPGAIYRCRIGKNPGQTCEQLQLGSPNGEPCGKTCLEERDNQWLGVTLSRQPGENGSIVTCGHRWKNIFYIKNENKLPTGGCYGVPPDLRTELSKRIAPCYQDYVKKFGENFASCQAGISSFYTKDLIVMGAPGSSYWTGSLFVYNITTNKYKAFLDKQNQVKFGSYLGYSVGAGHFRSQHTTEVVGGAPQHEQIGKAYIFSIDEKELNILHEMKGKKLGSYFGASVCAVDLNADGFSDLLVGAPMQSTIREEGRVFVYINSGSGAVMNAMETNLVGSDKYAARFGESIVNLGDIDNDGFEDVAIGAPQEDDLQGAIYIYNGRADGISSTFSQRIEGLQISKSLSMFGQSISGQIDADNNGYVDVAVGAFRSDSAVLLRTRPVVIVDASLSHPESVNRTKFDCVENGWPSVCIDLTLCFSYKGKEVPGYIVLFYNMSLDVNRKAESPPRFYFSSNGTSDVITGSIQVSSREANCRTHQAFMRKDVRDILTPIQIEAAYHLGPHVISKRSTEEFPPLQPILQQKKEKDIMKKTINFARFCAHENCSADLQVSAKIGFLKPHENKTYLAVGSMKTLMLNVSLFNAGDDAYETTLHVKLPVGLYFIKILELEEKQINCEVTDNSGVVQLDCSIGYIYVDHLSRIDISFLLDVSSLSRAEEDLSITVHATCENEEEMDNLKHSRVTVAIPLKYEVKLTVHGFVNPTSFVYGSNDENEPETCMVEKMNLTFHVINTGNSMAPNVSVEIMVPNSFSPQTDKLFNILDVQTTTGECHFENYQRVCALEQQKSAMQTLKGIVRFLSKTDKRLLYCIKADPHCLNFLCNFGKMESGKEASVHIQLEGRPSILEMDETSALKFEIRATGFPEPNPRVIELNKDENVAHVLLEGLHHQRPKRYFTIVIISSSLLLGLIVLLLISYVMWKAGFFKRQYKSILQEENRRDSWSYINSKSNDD
T1 sequence (P05556 21-798): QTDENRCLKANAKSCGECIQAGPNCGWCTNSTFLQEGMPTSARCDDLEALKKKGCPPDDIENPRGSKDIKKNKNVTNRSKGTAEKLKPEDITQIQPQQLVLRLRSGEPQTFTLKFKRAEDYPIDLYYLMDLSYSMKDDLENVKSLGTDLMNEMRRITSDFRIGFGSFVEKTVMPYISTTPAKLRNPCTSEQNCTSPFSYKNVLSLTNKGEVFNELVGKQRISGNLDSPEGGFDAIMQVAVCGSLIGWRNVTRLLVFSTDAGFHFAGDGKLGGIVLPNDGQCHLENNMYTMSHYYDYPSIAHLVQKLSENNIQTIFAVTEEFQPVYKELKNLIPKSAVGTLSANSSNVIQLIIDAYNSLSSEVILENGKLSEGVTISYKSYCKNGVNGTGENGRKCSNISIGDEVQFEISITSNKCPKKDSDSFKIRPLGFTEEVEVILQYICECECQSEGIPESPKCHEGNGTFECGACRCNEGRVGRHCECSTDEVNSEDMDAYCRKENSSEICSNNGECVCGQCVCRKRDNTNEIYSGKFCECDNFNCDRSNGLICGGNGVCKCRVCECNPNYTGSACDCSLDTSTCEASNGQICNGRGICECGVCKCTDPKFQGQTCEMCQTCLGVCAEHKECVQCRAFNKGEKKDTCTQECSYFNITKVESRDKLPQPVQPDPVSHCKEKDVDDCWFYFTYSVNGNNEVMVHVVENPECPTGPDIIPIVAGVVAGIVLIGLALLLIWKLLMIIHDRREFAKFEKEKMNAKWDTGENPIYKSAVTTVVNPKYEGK

By solubility is commonly meant the concentration that dissolves in the medium under given conditions. Read a high solubility as much dissolved substance. What is called Ki is a dissociation constant, usually derived from enzyme kinetics or from competition with a known ligand. As usually defined, the IC50 is the concentration at which inhibition is half-maximal. Take `CC1CN([C@H]2C[C@@H](CO[C@H]3CC[C@H](C(=O)O)CC3)N(C(=O)Cc3cc(Cl)c(NC(=O)c4cn(C)c5ccccc45)cc3Cl)C2)C1` [Example 10, Trans-4-[1-[[2,5-dichloro-4-[(1-methyl-1H-indol-3-ylcarbonyl)amino]phenyl]acetyl]-(4S)-(3-methylazetidin-1-yl)-(2S)-pyrrolidinylmethoxy]cyclohexanecarboxylic acid]: in data set [1], the inhibition in vivo at 5 mg/kg is 44% and the “Average total eosinophile count (×10^5) of (ascaris-sensitized + substance under test) group” value (“Average total eosinophile count” for short) is on record as 1.73 ×10^5. Besides, the solubility in data set [2] (setting [5]) was over 2000 µg/mL. Moreover, the solubility in data set [2] (setting [6]) is over 2000 µg/mL. Besides, in data set [3], the Ki worked out at 9.5 nM and the IC50 is 37 nM. Also, in data set [4], the “Cltot (mL/min/kg): apparent plasma clearance” value (from here on “Cltot (mL/min/kg)”) is 0.80 mL/min/kg and the “AUC (ng · h/ml): total area under the plasma concentration versus time curve” value was found to be 10799 ng·h/mL.

Regarding `C[C@@H]1CN([C@H]2C[C@@H](CO[C@H]3CC[C@H](C(=O)O)CC3)N(C(=O)Cc3cc(Cl)c(NC(=O)c4coc5ccccc45)cc3Cl)C2)C[C@H](C)O1` [Example 83, Trans-4-[1-[[4-[(benzo[b]furan-3-ylcarbonyl)amino]-2,5-dichlorophenyl]acetyl]-(4S)-(cis-2,6-dimethylmorpholin-4-yl)-(2S)-pyrrolidinylmethoxy]cyclohexanecarboxylic acid], in data set [3], the Ki stood at 5.2 nM and the IC50 is 42 nM. In addition, in data set [4], the “Cltot (mL/min/kg)” value stood at 0.56 mL/min/kg and the “AUC (ng · h/ml): total area under the plasma concentration versus time curve” value stood at 15064 ng·h/mL.

As to `COC1CN([C@H]2C[C@@H](CO[C@H]3CC[C@H](C(=O)O)CC3)N(C(=O)Cc3cc(Cl)c(NC(=O)c4csc5ccccc45)cc3F)C2)C1` (relative stereo) [Example 3, Trans-4-[1-[[4-[(benzo[b]thiophen-3-ylcarbonyl)amino]-5-chloro-2-fluorophenyl]acetyl]-(4S)-(3-methoxyazetidin-1-yl)-(2S)-pyrrolidinylmethoxy]cyclohexanecarboxylic acid], the “Solubility, First liquid of Japanese Pharmacopoeia” value (“Solubility, First liquid” below) in data set [2] (JP1, pH=1.2) came out at 1848 µg/mL. Besides, in data set [2] (JP2, pH=6.8), the “Solubility, Second liquid of Japanese Pharmacopoeia” value (“Solubility, Second liquid” below) is 1989 µg/mL. Further, in data set [3], the affinity, expressed as Ki, was 0.97 nM and the IC50 was found to be 11 nM. Besides, in data set [4], the “Cltot (mL/min/kg)” value turned out to be 0.26 mL/min/kg and the “AUC (ng · h/ml): total area under the plasma concentration versus time curve” value is 32510 ng·h/mL.

Take `Cn1cc(C(=O)Nc2cc(Cl)c(CC(=O)N3C[C@@H](N4CCN(C5CC5)CC4)C[C@H]3CO[C@H]3CC[C@H](C(=O)O)CC3)cc2Cl)c2ccccc21` [Example 139, Trans-4-[1-[[2,5-dichloro-4-[(1-methyl-1H-indol-3-ylcarbonyl)amino]phenyl]acetyl]-(4S)-(4-cyclopropylpiperazin-1-yl)-(2S)-pyrrolidinylmethoxy]cyclohexanecarboxylic acid]: in data set [3], the Ki turned out to be 2.5 nM and the IC50 was found to be 13 nM. In data set [4], the “Cltot (mL/min/kg)” value stood at 1.2 mL/min/kg and the “AUC (ng · h/ml): total area under the plasma concentration versus time curve” value turned out to be 7329 ng·h/mL.

For `O=C(Nc1ccc(CC(=O)N2C[C@@H](N3CCN(CC(F)(F)F)CC3)C[C@H]2CO[C@H]2CC[C@H](C(=O)O)CC2)cc1Cl)c1nccc2ccccc12` [Example 127, Trans-4-[1-[[3-chloro-4-[(isoquinolin-1-ylcarbonyl)amino]phenyl]acetyl]-(4S)-[4-(2,2,2-trifluoroethyl)piperazin-1-yl]-(2S)-pyrrolidinylmethoxy]cyclohexanecarboxylic acid], in data set [1], the inhibition in vivo at 5 mg/kg amounted to 63% and the “Average total eosinophile count” value is reported as 1.40 ×10^5. For the same compound, in data set [3], the affinity, expressed as Ki, was 9.6 nM and the IC50 turned out to be 34 nM.

Consider `O=C(Nc1cc(F)c(CC(=O)N2C[C@@H](N3CCCCC3)C[C@H]2CO[C@H]2CC[C@H](C(=O)O)CC2)cc1Cl)c1csc2ccccc12` [Example 94, Trans-4-[1-[[4-[(benzo[b]thiophen-3-ylcarbonyl)amino]-5-chloro-2-fluorophenyl]acetyl]-(4S)-(piperidin-1-yl)-(2S)-pyrrolidinylmethoxy]cyclohexanecarboxylic acid], for which, in data set [1], the inhibition in vivo at 5 mg/kg was found to be 59% and the “Average total eosinophile count” value is 1.24 ×10^5. In addition, in data set [3], the Ki was 0.93 nM and the IC50 came out at 2.9 nM.

For the compound `COC1CN([C@H]2C[C@@H](CO[C@H]3CC[C@H](C(=O)O)CC3)N(C(=O)Cc3cc(Cl)c(NC(=O)c4cn(C)c5ccccc45)cc3Cl)C2)C1` (relative stereo) [Example 2, Trans-4-[1-[[2,5-dichloro-4-[(1-methyl-1H-indol-3-ylcarbonyl)amino]phenyl]acetyl]-(4S)-(3-methoxyazetidin-1-yl)-(2S)-pyrrolidinylmethoxy]cyclohexanecarboxylic acid], in data set [2] (JP1, pH=1.2), the “Solubility, First liquid” value was over 2000 µg/mL. The “Solubility, Second liquid” value in data set [2] (JP2, pH=6.8) was over 2000 µg/mL. In data set [3], the Ki is 2.2 nM and the IC50 stood at 17 nM. Further, in data set [4], the “Cltot (mL/min/kg)” value was determined as 0.40 mL/min/kg and the “AUC (ng · h/ml): total area under the plasma concentration versus time curve” value turned out to be 22185 ng·h/mL.

Turning to `COC1CN([C@H]2C[C@@H](CO[C@H]3CC[C@H](C(=O)O)CC3)N(C(=O)Cc3cc(Cl)c(NC(=O)c4coc5ccccc45)cc3F)C2)C1` (relative stereo) [Example 5, Trans-4-[1-[[4-[(benzo[b]furan-3-ylcarbonyl)amino]-5-chloro-2-fluorophenyl]acetyl]-(4S)-(3-methoxyazetidin-1-yl)-(2S)-pyrrolidinylmethoxy]cyclohexanecarboxylic acid], the “Solubility, First liquid” value (pH 1.2) is 1970 µg/mL. Further, the “Solubility, Second liquid” value (pH 6.8) is over 2000 µg/mL. In data set [3], the Ki was found to be 1.4 nM and the IC50 amounted to 12 nM.

For `Cn1cc(C(=O)Nc2cc(F)c(CC(=O)N3C[C@@H](N4C[C@H]5COC[C@H]5C4)C[C@H]3CO[C@H]3CC[C@H](C(=O)O)CC3)cc2Cl)c2ccccc21` [Example 72], in data set [1], the inhibition in vivo at 5 mg/kg came out at 70% and the “Average total eosinophile count” value is reported as 1.41 ×10^5. Further, in data set [3], the affinity, expressed as Ki, was 2.8 nM and the IC50 amounted to 15 nM.

As to `Cn1cc(C(=O)Nc2cc(F)c(CC(=O)N3C[C@@H](N4CCN(CCF)CC4)C[C@H]3CO[C@H]3CC[C@H](C(=O)O)CC3)cc2Cl)c2ccccc21` [Example 118, Trans-4-[1-[[5-chloro-2-fluoro-4-[(1-methyl-1H-indol-3-ylcarbonyl)amino]phenyl]acetyl]-(4S)-[4-(2-fluoroethyl)piperazin-1-yl]-(2S)-pyrrolidinylmethoxy]cyclohexanecarboxylic acid], in data set [1], the inhibition in vivo at 5 mg/kg came to 67% and the “Average total eosinophile count” value is reported as 1.41 ×10^5. The compound further registered a solubility in data set [2] (setting [5]) of 1000 µg/mL (≈ 1430 µM). In data set [2] (setting [6]), this compound registered a solubility of 1000 µg/mL (≈ 1430 µM). In data set [3], affinity was put at a Ki of 3.9 nM and the IC50 stood at 13 nM.

Turning to `C[C@@H]1CN([C@H]2C[C@@H](CO[C@H]3CC[C@H](C(=O)O)CC3)N(C(=O)Cc3cc(Cl)c(NC(=O)c4cn(C)c5ccccc45)cc3Cl)C2)C[C@H](C)O1` [Example 80, Trans-4-[1-[[2,5-dichloro-4-[(1-methyl-1H-indol-3-ylcarbonyl)amino]phenyl]acetyl]-(4S)-(cis-2,6-dimethylmorpholin-4-yl)-(2S)-pyrrolidinylmethoxy]cyclohexanecarboxylic acid], in data set [1], the inhibition in vivo at 5 mg/kg stood at 51% and the “Average total eosinophile count” value is reported as 1.86 ×10^5. Also, in data set [3], affinity was put at a Ki of 6.5 nM and the IC50 amounted to 20 nM.

Turning to `Cn1cc(C(=O)Nc2cc(F)c(CC(=O)N3C[C@@H](N4CCN(CC(F)(F)F)CC4)C[C@H]3CO[C@H]3CC[C@H](C(=O)O)CC3)cc2Cl)c2ccccc21` [Example 124, Trans-4-[1-[[5-chloro-2-fluoro-4-[(1-methyl-1H-indol-3-ylcarbonyl)amino]phenyl]acetyl]-(4S)-[4-(2,2,2-trifluoroethyl)piperazin-1-yl]-(2S)-pyrrolidinylmethoxy]cyclohexanecarboxylic acid], in data set [1], the inhibition in vivo at 5 mg/kg is 63% and the “Average total eosinophile count” value is recorded as 1.72 ×10^5. In data set [3], affinity was put at a Ki of 4.9 nM and the IC50 worked out at 17 nM.
